Assay results reported in PubChem BioAssay AID248 (DTP/NCI, 2004).
“And” between values parts separate entries of the source, which are not always exact repeats. Identical values can stand only once. Toxic doses and inconclusive results are not listed. Cut-off read from the data, not from the text of the source: active = T/C of 150% or more; inactive = T/C below 125%.

System: L1210 leukemia ip in BDF1 mice, survival T/C
Assay: NCI In Vivo Anticancer Drug Screen. Data for tumor model L1210 Leukemia (intraperitoneal) in B6D2F1 (BDF1) mice
Conditions: endpoint: mean survival time, higher = longer survival
Outline: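 Tumor was transplanted into mice, which were then dosed with test compound or vehicle alone. Survival was recorded for each group, and the treated figure was expressed relative to the control figure.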

[1] = dose: 50.0 mg/kg/injection, schedule: Q01DX009 (ip), vehicle: saline with Tween-80
[2] = dose: 100.0 mg/kg/injection, schedule: Q01DX009 (ip), vehicle: saline with Tween-80
[3] = dose: 200.0 mg/kg/injection, schedule: Q01DX009 (ip), vehicle: saline with Tween-80
[4] = dose: 100.0 mg/kg/injection, schedule: Q01DX009 (ip), vehicle: Klucel (hydroxypropylcellulose) (HPC)
[5] = dose: 100.0 mg/kg/injection, schedule: Q04DX002 (ip), vehicle: Klucel (hydroxypropylcellulose) (HPC)
[6] = dose: 200.0 mg/kg/injection, schedule: Q01DX009 (ip), vehicle: Klucel (hydroxypropylcellulose) (HPC)
[7] = dose: 200.0 mg/kg/injection, schedule: Q04DX002 (ip), vehicle: Klucel (hydroxypropylcellulose) (HPC)
[8] = dose: 400.0 mg/kg/injection, schedule: Q01DX009 (ip), vehicle: Klucel (hydroxypropylcellulose) (HPC)
[9] = dose: 400.0 mg/kg/injection, schedule: Q04DX002 (ip), vehicle: Klucel (hydroxypropylcellulose) (HPC)
[10] = dose: 100.0 mg/kg/injection, schedule: Q01DX001 (ip), vehicle: carboxymethylcellulose (CMC)
[11] = dose: 200.0 mg/kg/injection, schedule: Q01DX001 (ip), vehicle: carboxymethylcellulose (CMC)
[12] = dose: 100.0 mg/kg/injection, schedule: Q04DX003 (ip), vehicle: saline with Tween-80
[13] = dose: 200.0 mg/kg/injection, schedule: Q04DX003 (ip), vehicle: saline with Tween-80
[14] = dose: 300.0 mg/kg/injection, schedule: Q01DX001 (ip), vehicle: saline
[15] = dose: 100.0 mg/kg/injection, schedule: Q04DX003 (ip), vehicle: saline
[16] = dose: 200.0 mg/kg/injection, schedule: Q04DX003 (ip), vehicle: saline
[17] = dose: 400.0 mg/kg/injection, schedule: Q04DX003 (ip), vehicle: saline

Measured: T/C

CCCCOC(=O)c1ccc(OC(=O)Nc2ccc(C)cc2[N+](=O)[O-])cc1
inactive: dose: 50.0 mg/kg/injection, schedule: Q01DX009 (ip), vehicle: saline + alcohol 97 % of control | dose: 100.0 mg/kg/injection, schedule: Q01DX009 (ip), vehicle: saline + alcohol 123 % of control | dose: 200.0 mg/kg/injection, schedule: Q01DX009 (ip), vehicle: saline + alcohol 103 % of control

Clc1cc(Cl)c(SSc2cc(Cl)c(Cl)cc2Cl)cc1Cl
inactive: [1] 102 % of control | [2] 98 % of control | [3] 98 % of control

O=C1c2ccccc2CCC1C1(O)C(=O)Nc2ccccc21 (stereo unspecified)
inactive: [1] 104 % of control | [2] 101 % of control | [3] 93 % of control

Cc1cc(Cl)cc2sc(=S)[nH]c12
inactive: [4] 96 % of control and 108 % of control | [5] 110 % of control | [6] 86 % of control and 92 % of control | [7] 110 % of control | [8] 87 % of control | [9] 110 % of control

CCCCCCCC(C)NCCO (stereo unspecified)
inactive: dose: 75.0 mg/kg/injection, schedule: Q01DX001 (ip), vehicle: carboxymethylcellulose (CMC) 98 % of control

CC1CN(C(=S)Nc2cccc3ccccc23)CC(C)O1 (stereo unspecified)
inactive: [4] 100 % of control | [6] 97 % of control | [8] 95 % of control

O=NC1C(Cl)C2CC1C1CCCC21 (stereo unspecified)
inactive: dose: 100.0 mg/kg/injection, schedule: Q04DX003 (ip), vehicle: Klucel (hydroxypropylcellulose) (HPC) 95 % of control | [6] 92 % of control | dose: 200.0 mg/kg/injection, schedule: Q04DX003 (ip), vehicle: Klucel (hydroxypropylcellulose) (HPC) 92 % of control | [8] 96 % of control | dose: 400.0 mg/kg/injection, schedule: Q04DX003 (ip), vehicle: Klucel (hydroxypropylcellulose) (HPC) 94 % of control

N#CC1(Nc2ccc(-c3ccc(Cl)cc3)cc2)CCCC1
inactive: dose: 50.0 mg/kg/injection, schedule: Q01DX001 (ip), vehicle: carboxymethylcellulose (CMC) 91 % of control | [10] 91 % of control | [11] 87 % of control

CCOP(OCC)Oc1ccccc1
inactive: [12] 92 % of control | [13] 109 % of control | dose: 400.0 mg/kg/injection, schedule: Q04DX003 (ip), vehicle: saline with Tween-80 100 % of control

CCCCCC(=O)NNC(=O)CCCCC
inactive: dose: 75.0 mg/kg/injection, schedule: Q01DX001 (ip), vehicle: saline 91 % of control | dose: 150.0 mg/kg/injection, schedule: Q01DX001 (ip), vehicle: saline 91 % of control | [14] 94 % of control

O=S(=O)(CBr)/C(Br)=C/c1ccccc1
inactive: dose: 50.0 mg/kg/injection, schedule: Q04DX002 (ip), vehicle: Klucel (hydroxypropylcellulose) (HPC) 97 % of control | [5] 94 % of control | [7] 103 % of control

CCN(CC)c1cccc(O)c1
inactive: [12] 90 % of control | [13] 95 % of control

CCCCOC(=O)c1ccc(NC(=O)Nc2ccccc2)cc1
inactive: dose: 25.0 mg/kg/injection, schedule: Q04DX003 (ip), vehicle: saline with Tween-80 101 % of control | dose: 50.0 mg/kg/injection, schedule: Q04DX003 (ip), vehicle: saline with Tween-80 93 % of control | [12] 93 % of control and 97 % of control

NCCSC12CC3CC(CC(C3)C1)C2
inactive: dose: 100.0 mg/kg/injection, schedule: Q04DX002 (ip), vehicle: saline 90 % of control | dose: 200.0 mg/kg/injection, schedule: Q04DX002 (ip), vehicle: saline 94 % of control | dose: 400.0 mg/kg/injection, schedule: Q04DX002 (ip), vehicle: saline 96 % of control

O=C1OC2CC1(O)CC(O)C2O (stereo unspecified)
inactive: [1] 92 % of control | [2] 94 % of control | [3] 92 % of control

COc1ccc2ccc3ccc(OC)c(OC(C)=O)c3c2c1
inactive: dose: 100.0 mg/kg/injection, schedule: Q01DX001 (ip), vehicle: steriod suspending solution 94 % of control | dose: 200.0 mg/kg/injection, schedule: Q01DX001 (ip), vehicle: steriod suspending solution 105 % of control | dose: 400.0 mg/kg/injection, schedule: Q01DX001 (ip), vehicle: steriod suspending solution 108 % of control

CC(C)(C)c1cccc(C(C)(C)C)c1O
inactive: [15] 102 % of control | [16] 98 % of control | [17] 90 % of control

O=C1c2cccc3c(Br)ccc(c23)C(=O)N1CCCN1CCOCC1
inactive: dose: 25.0 mg/kg/injection, schedule: Q01DX009 (ip), vehicle: Klucel (hydroxypropylcellulose) (HPC) 97 % of control | dose: 50.0 mg/kg/injection, schedule: Q01DX009 (ip), vehicle: Klucel (hydroxypropylcellulose) (HPC) 90 % of control | [4] 102 % of control

CC1CCC(Oc2nc3c(c(=O)n(C)c(=O)n3C)n2C)CC1 (stereo unspecified)
inactive: dose: 50.0 mg/kg/injection, schedule: Q01DX001 (ip), vehicle: other 104 % of control and 100 % of control | dose: 100.0 mg/kg/injection, schedule: Q01DX001 (ip), vehicle: other 101 % of control and 103 % of control | dose: 200.0 mg/kg/injection, schedule: Q01DX001 (ip), vehicle: other 101 % of control and 92 % of control | dose: 400.0 mg/kg/injection, schedule: Q01DX001 (ip), vehicle: other 95 % of control

NC(=O)C[n+]1cccc(C(N)=O)c1
inactive: [15] 97 % of control | [16] 101 % of control | [17] 101 % of control

Cc1ccc(NCC(=O)NN)cc1C
inactive: [10] 106 % of control | dose: 100.0 mg/kg/injection, schedule: Q01DX009 (ip), vehicle: carboxymethylcellulose (CMC) 106 % of control and 91 % of control | [5] 91 % of control | dose: 100.0 mg/kg/injection, schedule: Q04DX002 (ip), vehicle: carboxymethylcellulose (CMC) 115 % of control | dose: 100.0 mg/kg/injection, schedule: Q04DX003 (ip), vehicle: carboxymethylcellulose (CMC) 101 % of control | [11] 94 % of control | dose: 200.0 mg/kg/injection, schedule: Q01DX009 (ip), vehicle: carboxymethylcellulose (CMC) 105 % of control and 109 % of control | [7] 98 % of control | dose: 200.0 mg/kg/injection, schedule: Q04DX002 (ip), vehicle: carboxymethylcellulose (CMC) 94 % of control | dose: 200.0 mg/kg/injection, schedule: Q04DX003 (ip), vehicle: carboxymethylcellulose (CMC) 89 % of control | dose: 400.0 mg/kg/injection, schedule: Q01DX001 (ip), vehicle: carboxymethylcellulose (CMC) 96 % of control | dose: 400.0 mg/kg/injection, schedule: Q01DX009 (ip), vehicle: carboxymethylcellulose (CMC) 95 % of control and 100 % of control | [9] 113 % of control | dose: 400.0 mg/kg/injection, schedule: Q04DX002 (ip), vehicle: carboxymethylcellulose (CMC) 97 % of control | dose: 400.0 mg/kg/injection, schedule: Q04DX003 (ip), vehicle: carboxymethylcellulose (CMC) 101 % of control

CC(=O)OC1C(C(=O)O)CC(C(=O)O)C1OC(C)=O (stereo unspecified)
inactive: dose: 88.0 mg/kg/injection, schedule: Q01DX001 (ip), vehicle: saline 88 % of control | dose: 100.0 mg/kg/injection, schedule: Q01DX001 (ip), vehicle: saline 108 % of control | dose: 133.0 mg/kg/injection, schedule: Q01DX001 (ip), vehicle: saline 98 % of control | dose: 200.0 mg/kg/injection, schedule: Q01DX001 (ip), vehicle: saline 98 % of control | [14] 98 % of control | dose: 400.0 mg/kg/injection, schedule: Q01DX001 (ip), vehicle: saline 106 % of control

NC(N)=N/N=C/c1cc([N+](=O)[O-])ccc1OCC(=O)O
inactive: dose: 60.0 mg/kg/injection, schedule: Q01DX Z (oral), vehicle: methylcellulose (MC) 98 % of control | dose: 120.0 mg/kg/injection, schedule: Q01DX Z (oral), vehicle: methylcellulose (MC) 98 % of control | dose: 240.0 mg/kg/injection, schedule: Q01DX Z (ip), vehicle: methylcellulose (MC) 95 % of control | dose: 240.0 mg/kg/injection, schedule: Q01DX Z (oral), vehicle: methylcellulose (MC) 115 % of control | dose: 360.0 mg/kg/injection, schedule: Q01DX Z (ip), vehicle: methylcellulose (MC) 93 % of control | dose: 480.0 mg/kg/injection, schedule: Q01DX Z (ip), vehicle: methylcellulose (MC) 100 % of control | dose: 480.0 mg/kg/injection, schedule: Q01DX Z (oral), vehicle: methylcellulose (MC) 102 % of control
